Columns and labels:
cultured PINK cells = assay: qRT-PCR gene expression in lenalidomide- or pomalidomide-treated cultured PINK cells; format: cell-based, human; details: treated vs untreated cultured PINK cells
Description: RNA isolation and purification.
Quantitative real-time (qRT-PCR) analysis.

[1] = cited from earlier work

Compound | stability at higher relative humidities [1] | other results
Nc1cccc2c1C(=O)N(C1CCC(=O)NC1=O)C2=O (racemic) [pomalidomide, 4-(Amino)-2-(2,6-dioxo(3-piperidyl))-isoindoline-1,3-dione] |  | Fold change of gene expression, LTA (cultured PINK cells): 2.68 fold
Nc1cccc2c1CN(C1CCC(=O)NC1=O)C2=O (stereo not shown) [Form B, 3-(4-amino-1-oxo-1,3 dihydro-isoindol-2-yl)-piperidene-2,6-dione] |  | stability in aqueous solvent systems ([1]; aqueous solvent systems): converts to Form E in aqueous solvent systems
Nc1cccc2c1CN(C1CCC(=O)NC1=O)C2=O (stereo not shown) [Form C, 3-(4-amino-1-oxo-1,3 dihydro-isoindol-2-yl)-piperidene-2,6-dione] | can convert to Form B | 
Nc1cccc2c1CN(C1CCC(=O)NC1=O)C2=O (stereo not shown) [Form D, 3-(4-amino-1-oxo-1,3 dihydro-isoindol-2-yl)-piperidene-2,6-dione] | will typically convert to Form B | 
